Results: paper PMC5010535 (Cancer research, 2016)
Each block holds one molecule with its values, some of them ahead of it.

Key:
LNCaP-abl cells [1] = assay: Cell proliferation assay, LNCaP-abl cells; type: cell-based; conditions: 72 hours
LNCaP-abl cells [2] = assay: Clonogenic assay, LNCaP-abl cells; type: cell-based; conditions: 10 μM, 10 days
in vitro [3] = conditions: rat, liver microsomes
UBE2C = UBE2C mRNA expression in LNCaP-95 cells; type: cell-based; conditions: 10 μM, 48 hours
in vitro [4] = conditions: liver microsomes

Structure (SMILES): CNC(=O)c1ccc(N2C(=S)N(c3cnc(C#N)c(C(F)(F)F)c3)C(=O)C23CCC3)cc1F [ARN509]
effect on LNCaP-abl cellular proliferation (LNCaP-abl cells [1]; 10 μM): not growth inhibited | effect on colony formation (LNCaP-abl cells [2]): Neither enzalutamide nor ARN509 could effectively prevent colony formation

remaining at 1 h, 1.09 µM (in vitro [3]): 58.7%
Structure (SMILES): CC(C)NCC(O)COc1cccc2ccccc12 (stereo not shown) [Propranolol, propranolol]

Structure (SMILES): CNC(=O)c1ccc(N2C(=S)N(c3ccc(C#N)c(C(F)(F)F)c3)C(=O)C2(C)C)cc1F [enzalutamide]
UBE2C mRNA expression (UBE2C): significantly increased UBE2C mRNA expression | effect on colony formation (LNCaP-abl cells [2]): Neither enzalutamide nor ARN509 could effectively prevent colony formation

Structure (SMILES): C#C[C@]1(O)CC[C@H]2[C@@H]3CCC4=CC(=O)CC[C@]4(C)[C@H]3CC[C@@]21C [ethisterone]
EC50 (concentration required to inhibit the proliferation by 50%) (LNCaP-abl cells [1]; highest concentration tested 100 μM): failed to reach 50% inhibition at the maximal concentration tested

half-life at 1.09 µM (in vitro [4]): ~1.33 h
Structure (SMILES): CCOc1ccc(NC(C)=O)cc1 [phenacetin]
